Measured values published in the pKa sets of Baltruschat and Czodrowski (2020).

conditions: acidic group

Point of comparison: Cc1ccc(SCC(=O)O)cc1, pKa 3.57. Against it:
- CNC(=O)CS(=O)(=O)NC(N)=O — higher, 4.89
- FC(F)(F)c1cc(C(F)(F)F)[nH]n1 — higher, 7.51
- N#CC(C#N)=C(O)c1ccc(N)cc1 — higher, 4.28
- Cc1ccc(NC=S)cc1 — higher, 11.6
- Cc1ccc(C(O)C(C(=O)O)c2ccc(-c3ccccc3)cc2)cc1 (stereo not given) — higher, 4.24
- O=C(O)C12CC3CC(CC(F)(C3)C1)C2 — higher, 4.22
- OC(c1ccccc1)(c1ccncc1)c1ccncc1 — higher, 13.1
- Oc1ccc2cc(Br)ccc2c1 — higher, 9.2
- Cc1cc(Cc2cc(C)c(O)c(C)c2)c(O)c([N+](=O)[O-])c1 — higher, 7.98
- O=C(O)c1ccc([N+](=O)[O-])cc1O — lower, 1.83
- CCC(=O)c1cc(C(=O)C(C)(C)C)n[nH]1 — higher, 9.7
- O=C([O-])/C(=N/O)c1ccccc1 — higher, 11.6
- CC(C)C(N)C(N)=O (stereo not given) — higher, 8
- CC/C=C/CC(=O)N[C@H]1C(=O)N2[C@H]1SC(C)(C)[C@H]2C(=O)O — lower, 2.84
- CC(=O)CCCC(=O)O — higher, 4.66
- O=[Se](O)c1ccccc1-c1ccccc1 — higher, 4.67
- O=C(O)C1Cc2ccccc2O1 (stereo not given) — lower, 3.25
- O=C([O-])Cc1nnn[nH]1 — higher, 5.32
- C/C(=C/Cl)C(=O)O — lower, 3.05
- O=C(O)c1ncccn1 — lower, 2.85
- CC(C)([NH3+])C(=O)O — lower, 2.39
- C/C(N=O)=N\O — higher, 5.8
- COc1ncnc2nc[nH]c12 — higher, 9.16
- Oc1cc[nH+]cc1 — higher, 4.04
- O=c1ccc(Br)ccc1O — higher, 6.32
- COc1ccc2cc(O)ccc2c1 — higher, 9.64
- Cc1cc(O)[nH+]c2c1CCO2 — lower, 2.42
- C/C(=N/O)c1ccc(O)cc1O — higher, 8.35
- Cc1ccc(C(=O)O)c(O)c1 — lower, 3.11
- CCn1nnnc1CC(=O)O — lower, 2.85
- O=C(O)c1ccc2sc(Cn3cc[nH+]c3)cc2c1 — higher, 3.9
- O=C(O)CNC(=O)CNS(=O)(=O)c1ccccc1 — within 0.2 log units, 3.55
- CC(C)Oc1cccc(C(=O)O)c1 — higher, 4.15
- C=CCC1(C2C=CCCC2)C(=O)NC(=S)NC1=O (stereo not given) — higher, 7.25
- COc1ccc2c3c([nH]c2c1)C(C)=NCC3 — higher, 15.3
- C[n+]1ccc(-c2nc3ccccc3[nH]2)cc1 — higher, 8.89
- CN(O)C(=O)c1ccccc1 — higher, 8.07
- Cn1c([O-])nc2nc[nH]c2c1=O — higher, 11.9
- O=Cc1ccc(O)cc1 — higher, 7.53
- O=C1[N-]C(=O)/C(=N/O)C(=O)N1 — higher, 10.1
- COC(=O)/C=C(/C)O — higher, 9.48
- SCC[NH2+]Cc1ccccc1 — higher, 7.86
- CC(C)C(O[C@H]1O[C@@H](C(=O)O)[C@H](O)[C@@H](O)[C@@H]1O)C(C)C — higher, 3.89
- Nc1nc2[nH]cnc2c(O)[nH+]1 — lower, 3
- NCCNC(=O)c1ccccc1 — higher, 9.13
- O=C([O-])c1cc(O)c(O)c(C(=O)[O-])[o+]1 — higher, 9.82
- CSC(=S)NCC(=O)O — lower, 3.19
- [S-]c1nc(S)c2[nH]cnc2n1 — higher, 9.97
- Oc1cnc2ccccc2c1 — higher, 8.06
- CC/N=C(\N=[N+]=[N-])c1ccccc1O — higher, 9.4
- Cc1cccc(C)c1OCC(=O)O — lower, 3.36
- CCCCN[N+](=O)[O-] — higher, 6.48
- Nc1cccc(N)c1O — higher, 10.5
- O=C(O)c1cccc(Cl)c1 — higher, 3.8
- CN(C)C(=S)NCC(=O)O — within 0.2 log units, 3.71
- Nc1n[nH]c(N)c1/N=N/c1ccccc1O — higher, 8.22
- N#CCC(=O)O — lower, 2.46
- COc1ccc(O)c(C[NH2+]C(CO)C(=O)O)c1 (stereo not given) — lower, 2.1
- C=C(CCCC)C(=O)O — higher, 4.8
- CCOO — higher, 11.8
- CC(=O)C1CCCCC1=O (stereo not given) — higher, 10.2
- O=C1C=C(S(=O)(=O)[O-])c2[nH]ncc2/C1=N/O — higher, 7.75

same assay, conditions: basic group

Point of comparison: Nc1n[nH]c(N)c1/N=N/c1ccccc1O, pKa 3.51. Against it:
- CNCC(=O)[O-] — higher, 10.1
- OCCCNc1ccccc1 — higher, 4.53
- CCc1cnccc1N — higher, 9.17
- CC(C)N1C2CCCC21 (stereo not given) — higher, 8.31
- C[NH2+]CCN(C)CC[NH3+] — within 0.2 log units, 3.38
- Cc1n[nH]c2c(N)cccc12 — lower, 3.18
- c1cnc2c(c1)ccc1ncccc12 — higher, 4
- CN(C)CCN(C)CCN — higher, 9.88
- CCOC(=O)CCCN — higher, 9.71
- NCCCCO — higher, 10.3
- Cc1[nH]cnc1CSCCNC(=[NH2+])NCCCc1c[nH]cn1 — higher, 7.26
- CC[n+]1c([O-])ccnc1[S-] — higher, 8.65
- NC(=O)CN(CC[NH+](CC(N)=O)Cc1ccccc1O)Cc1ccccc1O — lower, 1.89
- CN(C)C(=S)c1ccccc1 — lower, -2.3
- c1cnc2c(c1)ccc1cccnc12 — higher, 4.96
- Cc1nc(C)c(C)nc1C — within 0.2 log units, 3.36
- CN(CCC#N)CCC#N — higher, 4.24
- Cc1cc([N+](=O)[O-])cc(C)c1N — lower, 0.98
- CN(CCN)CC[NH+](C)C — higher, 9.23
- CCN(CCO)c1ccc(N)cc1 — higher, 7.12
- CCc1cnnc(C)c1 — higher, 4.17
- Cc1ccn(-c2ccccn2)n1 — lower, 1.36
- [O-]c1nc2ccccc2[nH]1 — higher, 11.9
- C[NH+](C)CCN — higher, 6.63
- OCc1cc(-c2ccccc2)nnc1NCCN1CCOCC1 — higher, 6.99
- O=C(O)c1ncccn1 — lower, -1.13
- Nc1cccc2cn[nH]c12 — lower, 3.05
- COc1ncnc2nc[nH]c12 — lower, 2.21
- CN(O)Cc1ccccc1 — higher, 4.6
- [O-]c1cc2ccccc2cc1C1=NCCN1 — higher, 10.8
- Cc1ccccc1/C=C/c1ccc(N(C)C)cc1 — higher, 4.59
- CCCNCC[S-] — higher, 10.9
- [S-]c1ncc2nccnc2n1 — higher, 6.52
- c1ccc(N2CCCC2)cc1 — higher, 4.3
- Cc1ccc(CN)cc1 — higher, 9.51
- COc1ccc(/N=C/N(C)C)cc1 — higher, 9.35
- CCC1CN1 (stereo not given) — higher, 5.69
- O=S(=O)([O-])c1ccncc1 — within 0.2 log units, 3.44
- CN(C)[C@H]1CCC[C@@H]1C#N — higher, 7.02
- COc1ccc2c3c([nH]c2c1)C(C)=NCC3 — higher, 9.72
- Nc1nnnn1-c1ccc(Cl)cc1 — lower, 0.78
- C[n+]1ccc(-c2nc3ccccc3[nH]2)cc1 — lower, 2.26
- COc1cc2c(cc1OC)C13CCN4C1CC1C(=CCOC5CC(=O)N2C3C51)[C@@H]4S(=O)(=O)[O-] (stereo not given in full) — lower, 3.12
- CCN(CC)CCC(C)=O — higher, 9.25
- [NH3+]CCc1ccccn1 — higher, 3.93
- Cn1ncc2c(N)ncnc21 — higher, 4.32
- C(=N\c1ccccc1)/c1ccccc1 — higher, 4.55
- C[C@H](N)[C@@H](C)N — higher, 9.88
- CC(C)NCCNC(C)C — higher, 10.4
- C1CCN(CCC[NH+]2CCCC2)C1 — higher, 8.03
- CCc1ccc(C)nn1 — higher, 4.17
- N=C1Cc2ccccc2N1 — higher, 8.15
- Nc1ccc2nnc3ccccc3c2c1 — higher, 6.68
- Nc1ncc2ccccc2n1 — higher, 4.8
- O=C(Nc1cccnc1)c1ccccc1 — higher, 3.8
- C[C@@H]1CCC[C@H](N(C)C)C1 — higher, 10.5
- CC(C)N(C)/C=N/c1ccc(-c2c[nH]cn2)cc1 — higher, 8.72
- CN(C)CCNCCN — higher, 9.91
- Oc1cnc2ccccc2c1 — higher, 4.3
- CC1CNCCN1 (stereo not given) — higher, 9.9
- CC(C)N/C=[NH+]/c1ccc(-c2cncn2C)cc1 — higher, 6.51
- Nc1cccc(N)c1O — higher, 5.5
- CN1C(=N)C(C)(C)c2ccccc21 — higher, 9.25
- NCCCCc1cccnc1 — higher, 10.2
- NCCCCCCC#CC#CCCC(=O)[O-] — higher, 10.7
- N/C(=N\O)C(N)Cc1ccccc1 (stereo not given) — higher, 7.06
- N[C@@H]1C[C@@H]1[NH3+] — higher, 4.2
- CCCCNc1ccnc([S-])n1 — higher, 11.1
- CN1CCC=C(C#N)C1 — higher, 6.35
- Cc1[nH+]c2cccc(N)c2n1C — lower, 2.35
- Cc1nccn1C — higher, 7.64
